According to patent US20080107707A1, “POLYMERIZABLE ANTIMICROBIAL COMPOSITION” (REGENTS OF THE UNIVERSITY OF COLORADO, priority 2006, published 2008):
Converted amounts (≈) assume the structure as drawn.

Key:
[1] = system: S. epidermidis ATCC 12228; assay: Minimum bactericidal concentration (MBC), plating of broth dilution tubes; format: cell-based, Staphylococcus epidermidis
Method: The MBC is another parameter used to assess the usefulness of an antibacterial. It provides some measure of the concentration of agent required to kill bacteria, not just inhibit their growth. In this test, 10 μL of media from each tube were plated on trypticase soy agar (TSA) plates with 5% sheep blood (Becton, Dickinson, and Co., Sparks, Md.) and grown for 24 hr. at 37° C. The MBC was taken to be the lowest VPA concentration at which no colonies were observed.

[2] = system: S. epidermidis ATCC 12228; assay: Minimum inhibitory concentration (MIC), broth dilution method; format: cell-based, Staphylococcus epidermidis
Method: The minimum inhibitory concentration (MIC) and minimum bactericidal concentration (MBC) of the monomer were determined by the broth dilution method. Various amounts of VPA were added to 1 mL of brain heart infusion media (BHI) (Becton, Dickinson, and Co., Sparks, Md.) along with 1×10^5 cfu of S. epidermidis ATCC 12228 (MicroBiologics, Inc., St. Cloud, Minn.) using aseptic technique. Cultures were incubated for 24 hr. at 37° C. The MIC was taken to be the lowest VPA concentration at which no turbidity was observed.

| Compound | MBC ([1]; Staphylococcus epidermidis, ATCC12228) [µM] | MBC (lowest concentration at which no colonies were observed) ([1]; 10 μL plated on TSA 5% sheep blood, 24 hr at 37° C, mean ±std. dev.) [µg/mL] | MBC ([1]; S. epidermidis ATCC 12228) [µM] | MIC (lowest concentration at which no turbidity was observed) ([2]; 1×10^5 cfu in 1 mL BHI, 24 hr at 37° C, mean ±std. dev.) [µg/mL] | MIC ([2]; S. epidermidis ATCC 12228, broth dilution) [µM] |
| --- | --- | --- | --- | --- | --- |
| CN[C@H](CC(C)C)C(=O)N[C@H]1C(=O)N[C@@H](CC(N)=O)C(=O)N[C@H]2C(=O)N[C@H]3C(=O)N[C@H](C(=O)N[C@H](C(=O)O)c4cc(O)cc(O)c4-c4cc3ccc4O)[C@H](O)c3ccc(c(Cl)c3)Oc3cc2cc(c3O[C@@H]2O[C@H](CO)[C@@H](O)[C@H](O)[C@H]2O[C@H]2C[C@](C)(N)[C@H](O)[C@H](C)O2)Oc2ccc(cc2Cl)[C@H]1O [vancomycin, reference compound] | 1.12 ± 0.04 (≈ 1.62 µg/mL) |  |  |  |  |
| vancomycin-PEG(3400)-acrylate [VPA] |  | 15 ± 1 | 3.0 ± 0.2 | 11.5 ± 0.8 | 2.35 ± 0.15 |
